Reference: US11466044B2 (WAYNE STATE UNIVERSITY, priority 2017, dated 2022)
≈ marks a conversion by molar mass, not a printed value. Like-named read-outs stand apart in the source and are kept apart here.

What was measured:
MRSA = test: MIC by broth microdilution, MRSA isolates; type: cell-based; details: for MIC AG044 MRSA: clinical isolate AG044; for MIC: Staphylococcus aureus, MRSA
E coli wild type = test: MIC by broth microdilution, wild type E coli; type: cell-based; details: for MIC pH430 WT: E. coli strain pH430, WT; for MIC: Escherichia coli
P aeruginosa = test: MIC by broth microdilution, P aeruginosa isolates; type: cell-based, Pseudomonas aeruginosa; details: for MIC: Pseudomonas aeruginosa
[1] = test system: E coli carrying specific resistance determinants; test: MIC by broth microdilution, E coli carrying specific resistance determinants; type: cell-based; details: for MIC AG036 ANT(4′,4′′): E. coli strain AG036, ANT(4′,4′′); for MIC AG037 APH(3′)-III: E. coli strain AG037, APH(3′)-III; for MIC AG103 armA: E. coli strain AG103, armA; for MIC pH421 APH(3)-I: E. coli strain pH421, APH(3)-I; for MIC pH422 APH(3′)-II: E. coli strain pH422, APH(3′)-II; for MIC pH423 APH(3′)-VI: E. coli strain pH423, APH(3′)-VI; for MIC pH432 ANT(4′): E. coli strain pH432, ANT(4′); for MIC AG003 E. coli AAC(3)-II: clinical isolate AG003, AAC(3)-II; for MIC pH414 AAC(6′)-I: E. coli strain pH414, AAC(6′)-I; for MIC pH415 AAC(6′)-II: E. coli strain pH415, AAC(6′)-II
[2] = test system: wild type bacterial ribosomes; test: in-vitro translation assay, bacterial ribosomes; type: biochemical; details: Mycobacterium smegmatis ribosomes; read-out: IC50 Bacterial
Source text: (§1) The antiribosomal activity of these compounds was investigated with cell-free translation assays using both wild type bacterial ribosomes and hybrid ribosomes carrying eukaryotic decoding A sites enabling the prediction of selectivity.

[3] = test system: A1555G mutant mitochondrial ribosome (human chimeric); test: in-vitro translation assay, human chimeric ribosomes, A1555G mutant mitochondrial decoding site; type: biochemical; details: human mitochondrial decoding site with A1555G point mutation; read-out: IC50 Mitoch. A1555G
Source text: as §1

[4] = test system: cytosolic ribosome (human chimeric); type: biochemical; details: for IC50: ribosomes with a human cytosolic decoding site, read-out: IC50 Cytosolic
Source text: as §1

[5] = test system: mitochondrial ribosome (human chimeric); type: biochemical; details: ribosomes with a human mitochondrial decoding site; read-out: IC50 Mitoch.
Source text: as §1

[6] = test system: rabbit reticulocyte ribosomes; test: in-vitro translation assay, rabbit reticulocyte ribosomes; type: biochemical; details: mammalian cytosolic ribosomes (rabbit)
[7] = clinical isolate AG039, AAC(6′)-I ANT(4′)-I
[8] = clinical isolate AG042, AAC(6′)-I ANT(4′)-I APH(2′)
[9] = clinical isolate AG031, APH(3′)-II
[10] = clinical isolate AG032, APH(3′)-II

Structure (SMILES) | MIC AG038 MRSA (MRSA; clinical isolate AG038) [µg/mL] | MIC AG039 MRSA AAC(6′)-I ANT(4′)-I (MRSA; [7]) [µg/mL] | MIC AG042 MRSA AAC(6′)-I ANT(4′)-I APH(2′) (MRSA; [8]) [µg/mL] | MIC AG044 MRSA (MRSA) [µg/mL] | MIC pH430 WT (E coli wild type) | MIC AG001 E. coli WT (E coli wild type; clinical isolate AG001, WT) [µg/mL] | MIC AG055 E. coli WT (E coli wild type; clinical isolate AG055, WT) [µg/mL] | MIC AG031 P. aer. APH(3′)-II (P aeruginosa; [9]) [µg/mL] | MIC AG032 P. aer. APH(3′)-II (P aeruginosa; [10]) [µg/mL] | MIC AG036 ANT(4′,4′′) [1] [µg/mL] | MIC AG037 APH(3′)-III [1] [µg/mL] | MIC AG103 armA [1] [µg/mL] | MIC pH421 APH(3)-I [1] [μg/ml] | MIC pH422 APH(3′)-II [1] [μg/ml] | MIC pH423 APH(3′)-VI [1] [μg/ml] | IC50 [2] [nM] | IC50 [3] [µM] | IC50 [4] [µM] | IC50 [5] [µM] | IC50 [6] [µM] | further results
CC(C)(O)[C@H]1O[C@H](O[C@H]2[C@H](O[C@@H]3O[C@H](CO)[C@@H](O[C@H]4O[C@@H](CN)[C@@H](O)[C@H](O)[C@H]4N)[C@H]3O)[C@@H](O)[C@H](N)C[C@@H]2N)[C@H](N)[C@@H](O)[C@@H]1O [DC159] | 8 to 16 | >128 | >128 | 4 to 8 | 1-2 μg/ml | 8 (≈ 12.4 µM) | 8 (≈ 12.4 µM) | >128 | >128 | 16 to 32 | >64 | 4 to 8 | >64 | >64 | 8 | 40 | 87 | 30 | 211 | 15 | MIC pH432 ANT(4′) [1]: 2 μg/ml; MIC AG003 E. coli AAC(3)-II [1]: 8 µg/mL (≈ 12.4 µM)
CCCC(O)C1OC(OC2C(N)CC(N)C(O)C2OC2OC(CO)C(OC3OC(CN)C(O)C(O)C3N)C2O)C(N)C(O)C1O (stereo not drawn) [DC142] | 4 (≈ 6.08 µM) | >128 | >128 | 2 (≈ 3.04 µM) | 1 μg/ml | 8 (≈ 12.2 µM) | 8 (≈ 12.2 µM) | >128 | >128 | 32 to 64 | >32 | 1 (≈ 1.52 µM) | >32 | >32 | >32 | 40 | 20 | 34 | 107 | 12 | MIC pH414 AAC(6′)-I [1]: 1 μg/ml; MIC pH415 AAC(6′)-II [1]: 1 μg/ml; MIC pH432 ANT(4′) [1]: 1 μg/ml; MIC AG003 E. coli AAC(3)-II [1]: 8 µg/mL (≈ 12.2 µM)
CC(N)C1OC(OC2C(N)CC(N)C(O)C2OC2OC(CO)C(OC3OC(CN)C(O)C(O)C3N)C2O)C(N)C(O)C1O (stereo not drawn) [DC166] | 2 (≈ 3.18 µM) | >128 | >128 | 1 (≈ 1.59 µM) | 0.5 μg/ml | 2 (≈ 3.18 µM) | 2 (≈ 3.18 µM) | 128 to 256 | 128 (≈ 204 µM) | 16 (≈ 25.5 µM) | >64 | 1 (≈ 1.59 µM) | >32 | >32 | >32 | 10 | 1 | 26 | 9 | 48 | MIC pH414 AAC(6′)-I [1]: 0.5 μg/ml; MIC pH415 AAC(6′)-II [1]: 1-2 μg/ml; MIC pH432 ANT(4′) [1]: 0.5 μg/ml; MIC AG003 E. coli AAC(3)-II [1]: 2 µg/mL (≈ 3.18 µM)
CC(O)C1OC(OC2C(N)CC(N)C(O)C2OC2OC(CO)C(OC3OC(CN)C(O)C(O)C3N)C2O)C(N)C(O)C1O (stereo not drawn) [DC156] | 4 to 8 | >128 | >128 | 2 to 4 | 1 μg/ml | 4 to 8 | 4 (≈ 6.35 µM) | >32 | >32 | 32 to 64 | >32 | 1 (≈ 1.59 µM) | >32 | >32 | >32 | 20 | 8.4 | 2.6 | 185 | 5.4 | MIC pH414 AAC(6′)-I [1]: 1 μg/ml; MIC pH415 AAC(6′)-II [1]: 1 μg/ml; MIC pH432 ANT(4′) [1]: 1 μg/ml; MIC AG003 E. coli AAC(3)-II [1]: 4 µg/mL (≈ 6.35 µM); Target specificity bacterial vs. Cytosolic ([4]; relative target specificity, bacterial vs. human cytosolic): low
NCC1OC(OC2C(CO)OC(OC3C(O)C(N)CC(N)C3OC3OC(CN)C(O)C(O)C3NC=O)C2O)C(N)C(O)C1O (stereo not drawn) [DC-182] | – | – | – | – | – | – | – | – | – | – | – | – | – | – | – | 120 | 13 | 127 | 54 | 110 | MIC (MRSA; clinical isolate AG038, read-out: MIC AG038 MRSA): 2 to 4 µg/mL (≈ 3.11 to 6.22 µM); MIC (MRSA; clinical isolate AG039, AAC(6′)-I ANT(4′)-I, read-out: MIC AG039 MRSA AAC(6′)-I ANT(4′)-I): > 32 µg/mL; MIC (MRSA; clinical isolate AG042, AAC(6′)-I ANT(4′)-I APH(2′), read-out: MIC AG042 MRSA AAC(6′)-I ANT(4′)-I APH(2′)): > 32 µg/mL; MIC (E coli wild type; clinical isolate AG001, WT, read-out: MIC AG001 E. coli WT): 4 to 8 µg/mL (≈ 6.22 to 12.4 µM); MIC (E coli wild type; clinical isolate AG055, WT, read-out: MIC AG055 E. coli WT): 2 µg/mL (≈ 3.11 µM); MIC (P aeruginosa; clinical isolate AG031, APH(3′)-II, read-out: MIC AG031 P. aer. APH(3′)-II): > 32 µg/mL; MIC (P aeruginosa; clinical isolate AG032, APH(3′)-II, read-out: MIC AG032 P. aer. APH(3′)-II): > 32 µg/mL; MIC ([1]; Escherichia coli, read-out: MIC AG003 E. coli AAC(3)-II): 4 to 8 µg/mL (≈ 6.22 to 12.4 µM)
